Experiment: molar heat capacity at constant pressure
Settings: 101.33 kPa

Clc1ccc(Cl)cc1 [1,4-dichlorobenzene]
Settings | molar heat capacity at constant pressure [J/K/mol]
5.11 K, Crystal 3 | 0.29
6.43 K, Crystal 3 | 0.42
7.21 K, Crystal 3 | 0.83
7.89 K, Crystal 3 | 1.18
9.58 K, Crystal 3 | 2.1
10 K, Crystal 3 | 2.33
11.66 K, Crystal 3 | 3.22
13.08 K, Crystal 3 | 4.5
14.5 K, Crystal 3 | 6.12
15 K, Crystal 3 | 6.7
15.94 K, Crystal 3 | 7.81
18.49 K, Crystal 3 | 10.86
19 K, Crystal 3 | 11.19
20 K, Crystal 3 | 12.69
20.21 K, Crystal 3 | 12.96
21.65 K, Crystal 3 | 14.62
22.92 K, Crystal 3 | 16.12
24.05 K, Crystal 3 | 17.45
25 K, Crystal 3 | 18.52
25.09 K, Crystal 3 | 18.62
26.05 K, Crystal 3 | 19.66
28.53 K, Crystal 3 | 21.78
30 K, Crystal 3 | 23.27
32.77 K, Crystal 3 | 26.1
34.99 K, Crystal 3 | 28.16
36.99 K, Crystal 3 | 29.91
38.82 K, Crystal 3 | 31.33
40 K, Crystal 3 | 32.27
42.09 K, Crystal 3 | 33.94
44.35 K, Crystal 3 | 35.66
46.46 K, Crystal 3 | 37.19
48.44 K, Crystal 3 | 38.2
50 K, Crystal 3 | 39.36
52.09 K, Crystal 3 | 40.68
53.8 K, Crystal 3 | 41.66
55.44 K, Crystal 3 | 42.56
57.02 K, Crystal 3 | 43.48
58.55 K, Crystal 3 | 44.32
60 K, Crystal 3 | 45.13
60.03 K, Crystal 3 | 45.14
63.79 K, Crystal 3 | 47.24
66.94 K, Crystal 3 | 48.83
69.94 K, Crystal 3 | 50.35
70 K, Crystal 3 | 50.38
72.81 K, Crystal 3 | 51.62
80 K, Crystal 3 | 55.34
82.41 K, Crystal 3 | 56.53
85.29 K, Crystal 3 | 57.82
88.14 K, Crystal 3 | 59.02
90 K, Crystal 3 | 59.86
91.01 K, Crystal 3 | 60.3
93.9 K, Crystal 3 | 61.52
96.8 K, Crystal 3 | 62.72
99.71 K, Crystal 3 | 63.94
100 K, Crystal 3 | 64.06
102.62 K, Crystal 3 | 65.39
103.2 K, Crystal 3 | 65.58
105.55 K, Crystal 3 | 66.59
107.33 K, Crystal 3 | 67.31
108.49 K, Crystal 3 | 67.79
110 K, Crystal 3 | 68.42
111.35 K, Crystal 3 | 68.99
111.43 K, Crystal 3 | 69.01
114.39 K, Crystal 3 | 70.21
115.28 K, Crystal 3 | 70.59
117.35 K, Crystal 3 | 71.41
119.12 K, Crystal 3 | 72.17
120 K, Crystal 3 | 72.49
120.32 K, Crystal 3 | 72.62
122.89 K, Crystal 3 | 73.69
123.3 K, Crystal 3 | 73.82
126.28 K, Crystal 3 | 75.05
126.6 K, Crystal 3 | 75.16
129.27 K, Crystal 3 | 76.26
130 K, Crystal 3 | 76.54
130.24 K, Crystal 3 | 76.63
132.26 K, Crystal 3 | 77.49
133.83 K, Crystal 3 | 78.06
135.26 K, Crystal 3 | 78.7
137.36 K, Crystal 3 | 79.47
138.27 K, Crystal 3 | 79.99
140 K, Crystal 3 | 80.56
140.85 K, Crystal 3 | 80.87
141.27 K, Crystal 3 | 81.11
144.27 K, Crystal 3 | 82.33
147.28 K, Crystal 3 | 83.54
147.69 K, Crystal 3 | 83.58
150 K, Crystal 3 | 84.62
150.29 K, Crystal 3 | 84.72
151.05 K, Crystal 3 | 84.88
153.31 K, Crystal 3 | 85.92
156.33 K, Crystal 3 | 87.11
159.35 K, Crystal 3 | 88.32
160 K, Crystal 3 | 88.57
162.38 K, Crystal 3 | 89.5
165.4 K, Crystal 3 | 90.68
168.43 K, Crystal 3 | 91.85
170 K, Crystal 3 | 92.45
171.47 K, Crystal 3 | 93.01
177.53 K, Crystal 3 | 95.43
180 K, Crystal 3 | 96.42
180.53 K, Crystal 3 | 96.63
183.51 K, Crystal 3 | 97.84
186.47 K, Crystal 3 | 98.95
188.91 K, Crystal 3 | 99.81
189.41 K, Crystal 3 | 100.08
190 K, Crystal 3 | 100.33
191.9 K, Crystal 3 | 101.04
192.33 K, Crystal 3 | 101.32
194.87 K, Crystal 3 | 102.23
195.23 K, Crystal 3 | 102.39
197.82 K, Crystal 3 | 103.42
198.11 K, Crystal 3 | 103.53
200 K, Crystal 3 | 104.28
200.75 K, Crystal 3 | 104.57
200.98 K, Crystal 3 | 104.65
203.66 K, Crystal 3 | 105.76
206.55 K, Crystal 3 | 106.91
209.43 K, Crystal 3 | 108.06
210 K, Crystal 3 | 108.29
212.28 K, Crystal 3 | 109.21
215.03 K, Crystal 3 | 110.08
215.12 K, Crystal 3 | 110.42
217.8 K, Crystal 3 | 111.29
217.94 K, Crystal 3 | 111.43
220 K, Crystal 3 | 112.15
220.54 K, Crystal 3 | 112.37
220.75 K, Crystal 3 | 112.46
223.28 K, Crystal 3 | 113.45
225.99 K, Crystal 3 | 114.54
226.32 K, Crystal 3 | 114.68
228.7 K, Crystal 3 | 115.59
229.08 K, Crystal 3 | 115.81
230 K, Crystal 3 | 116.16
231.39 K, Crystal 3 | 116.65
231.82 K, Crystal 3 | 116.88
234.07 K, Crystal 3 | 117.7
234.55 K, Crystal 3 | 117.96
236.73 K, Crystal 3 | 118.76
237.27 K, Crystal 3 | 119.01
239.38 K, Crystal 3 | 119.79
239.97 K, Crystal 3 | 119.98
240 K, Crystal 3 | 119.99
242.02 K, Crystal 3 | 120.79
242.66 K, Crystal 3 | 121.05
244.65 K, Crystal 3 | 121.76
245.34 K, Crystal 3 | 122.11
247.26 K, Crystal 3 | 122.73
248 K, Crystal 3 | 123.17
249.87 K, Crystal 3 | 123.71
250 K, Crystal 3 | 123.77
250.66 K, Crystal 3 | 124.06
252.46 K, Crystal 3 | 124.73
253.3 K, Crystal 3 | 125.12
255.04 K, Crystal 3 | 125.74
257.61 K, Crystal 3 | 126.76
260 K, Crystal 3 | 127.72
260.16 K, Crystal 3 | 127.77
262.71 K, Crystal 3 | 128.79
265.24 K, Crystal 3 | 129.78
267.76 K, Crystal 3 | 130.84
270 K, Crystal 3 | 131.65
270.28 K, Crystal 3 | 131.78
272.78 K, Crystal 3 | 132.68
275 K, Crystal 2 | 134.45
275 K, Crystal 3 | 133.61
280 K, Crystal 2 | 135.94
281.42 K, Crystal 2 | 136.31
283.88 K, Crystal 2 | 137.36
286.32 K, Crystal 2 | 138.34
290 K, Crystal 2 | 139.78
292.1 K, Crystal 2 | 140.78
293.87 K, Crystal 2 | 141.42
296.42 K, Crystal 2 | 142.86
298.15 K, Crystal 2 | 143.78
298.96 K, Crystal 2 | 144.24
300 K, Crystal 2 | 144.8
301.51 K, Crystal 2 | 145.69
306 K, Crystal 1 | 147.86
306 K, Crystal 2 | 147.75
308.59 K, Crystal 1 | 148.61
310 K, Crystal 1 | 149.45
311.33 K, Crystal 1 | 150.45
314.11 K, Crystal 1 | 151.51
316.65 K, Crystal 1 | 152.8
319.2 K, Crystal 1 | 154.18
320 K, Crystal 1 | 154.72
321.74 K, Crystal 1 | 155.8
326.24 K, Crystal 1 | 158
326.24 K, Liquid | 175.98
330 K, Liquid | 176.87
331.52 K, Liquid | 177.33
332.72 K, Liquid | 177.51
333.8 K, Liquid | 177.86
335.4 K, Liquid | 178.04
336.04 K, Liquid | 178.35
337.95 K, Liquid | 178.72
338.28 K, Liquid | 178.83
340 K, Liquid | 179.23
340.5 K, Liquid | 179.25
340.53 K, Liquid | 179.38
342.77 K, Liquid | 179.91
343.05 K, Liquid | 179.96
345.6 K, Liquid | 180.47
348.14 K, Liquid | 181.07
350 K, Liquid | 181.59
350.69 K, Liquid | 181.7
353.24 K, Liquid | 182.31
355.79 K, Liquid | 183.1
358.34 K, Liquid | 183.5
360 K, Liquid | 183.95
360.89 K, Liquid | 184.17
363.44 K, Liquid | 184.8
368.54 K, Liquid | 185.95
370 K, Liquid | 186.3
371.09 K, Liquid | 186.69
373.64 K, Liquid | 187.14
376.2 K, Liquid | 187.74
380 K, Liquid | 188.66

Source: the NIST ThermoML archive (doi:10.1021/je049762q)
